Test results published in patent US20250368628A1, “METHODS AND COMPOUNDS FOR MODULATING INHERITED GENETIC DISEASES” (Design Therapeutics, Inc., priority 2022, published 2025).
Where two headings read alike, the source gives them in different places.

Legend:
[1] = system: F35T cells; assay: Foci reduction in FECD (CAG10-Cy3 FISH, foci per nucleus); type: cell-based
Outline: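 Foci per nucleus were counted by imaging after overnight CAG10-Cy3 FISH at 37 °C (30% formamide, 2×SSC) with DAPI counterstain, on PFA-fixed, ethanol-permeabilized F35T cells. The cells, seeded at 5000 per well in supplemented Opti-MEM, had received 8-point compound dilutions for 48 h at 37 °C.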

[2] = system: Myotonic Dystrophy 1 affected patient fibroblasts (Coriel GM04602; 1600 CTG repeats); assay: DM1 foci reduction assay (EC50 assay; CAG10-Cy3 FISH, foci per nucleus); type: cell-based
Outline: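 Foci per nucleus counted by 20× imaging of 4 areas per well, after overnight FISH with 5 nM CAG10-Cy3 and DAPI staining of fixed, permeabilized cells. DM1 fibroblasts (GM04602, 1600 CTG) were dosed 48 h at 37 °C, 8 points, 3-fold dilutions, 3 μM top concentration.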

[3] = F35T cells, 48 h treatment, foci per nucleus; read-out: FECD EC50, 48 h
[4] = Homo sapiens, Fibroblast; DM1 patient fibroblasts, 48 h treatment, foci per nucleus; read-out: DM1 EC50, 48 h

| Structure (SMILES) | EC50 [1, 3] [µM] | EC50 [2, 4] [µM] | EC50 ([1]; F35T cells, foci per nucleus, 48 h treatment; read-out: FECD EC50, 48 h) [µM] | EC50 ([2]; Homo sapiens, Fibroblast; DM1 patient fibroblasts, foci per nucleus, 48 h treatment; read-out: DM1 EC50, 48 h) [µM] |
| --- | --- | --- | --- | --- |
| CC#CC#CC1CCN(C(=O)CCNC(=O)c2nc(NC(=O)c3cc(NC(=O)CCNC(=O)c4nc(NC(=O)CCCNC(=O)c5cc(NC(=O)c6nc(NC(=O)CCNC(=O)c7cc(NC(=O)c8nccn8C)cn7C)cn6C)cn5C)cn4C)cn3C)cn2C)CC1 [Compound B-381] | 0.1 to 0.5 | 0.1 to 0.5 |  |  |
| COCCOCCOCCOCCN(CCCCCn1cc(NC(=O)c2nc(NC(=O)CCNC(=O)c3cc(NC(=O)c4nccn4C)cn3C)cn2C)cc1C(=O)NCCCC(=O)Nc1cn(C)c(C(=O)NCCC(=O)Nc2cc(C(=O)Nc3cn(C)c(C(=O)NCCC(=O)NCCOCCOCCOCCN4CCC(C#CC#CC5CCNCC5)CC4)n3)n(C)c2)n1)CCOCCOCCOCCOC [Compound B-227] | > 1 | > 1 |  |  |
| CCCNC(=O)CCNC(=O)c1nc(NC(=O)c2cc(NC(=O)CCNC(=O)c3nc(NC(=O)CCNC(=O)c4cc(NC(=O)c5nc(NC(=O)CCNC(=O)c6cc(NC(=O)c7nccn7C)cn6C)cn5C)cn4C)cn3C)cn2C)cn1C [Compound B-315] | > 1 | > 1 |  |  |
| CC(=O)N[C@H](CCNC(=O)c1cc(NC(=O)c2nc(NC(=O)CCNC(=O)c3cc(NC(=O)c4nccn4C)cn3C)cn2C)cn1C)C(=O)Nc1cn(C)c(C(=O)NCCC(=O)Nc2cc(C(=O)Nc3cn(C)c(C(=O)NCCC(=O)N4CCN(C)CC4)n3)n(C)c2)n1 [Compound B-404] | 0.1 to 0.5 | 0.5 to 1 |  |  |
| CCCCCCn1cc(NC(=O)c2nc(NC(=O)CCNC(=O)c3cc(NC(=O)c4nccn4C)cn3C)cn2C)cc1C(=O)NCCCC(=O)Nc1cn(C)c(C(=O)NCCC(=O)Nc2cc(C(=O)Nc3cn(C)c(C(=O)NCCC(=O)N4CCN(C)CC4)n3)n(C)c2)n1 [Compound B-425] |  |  | < 0.1 | < 0.1 |
| Cn1cc(NC(=O)c2nc(NC(=O)CCNC(=O)c3cc(NC(=O)c4nccn4C)cn3C)cn2C)cc1C(=O)NCCCC(=O)Nc1cn(C)c(C(=O)NCCC(=O)Nc2cc(C(=O)Nc3cn(C)c(C(=O)NCCC(=O)NC4COP(=O)(O)OC4)n3)n(C)c2)n1 (centres unmarked) [Compound B-392] | > 1 | 0.5 to 1 |  |  |
| CC(Nc1cc(C(=O)NCCC(=O)Nc2cn(C)c(C(=O)Nc3cc(C(=O)NCCCC(=O)Nc4cn(C)c(C(=O)Nc5cc(C(=O)NCCC(=O)Nc6cn(C)c(C(=O)NCCC(=O)NCCOCCOCCOCCOCCOCCNC(=O)[C@@H](N)CO)n6)n(C)c5)n4)n(C)c3)n2)n(C)c1)c1nccn1C (some centres unmarked) [Compound B-111] | > 1 | 0.5 to 1 |  |  |
| CCCNC(=O)c1nc(NC(=O)c2cc(NC(=O)CCNC(=O)c3nc(NC(=O)CCCNC(=O)c4cc(NC(=O)c5nc(NC(=O)CCNC(=O)c6cc(NC(=O)c7nc(N=C(N)N)cn7C)cn6C)cn5C)cn4C)cn3C)cn2C)cn1C [Compound B-328] | 0.1 to 0.5 | 0.1 to 0.5 |  |  |
| COCCOCCOCCOCCOCCOCCC(=O)NCCCCCCn1cc(NC(=O)c2nc(NC(=O)CCNC(=O)c3cc(NC(=O)c4nccn4C)cn3C)cn2C)cc1C(=O)NCCCC(=O)Nc1cn(C)c(C(=O)NCCC(=O)Nc2cc(C(=O)Nc3cn(C)c(C(=O)NCCC(=O)N4CCC(C#CC#CC5CCN(C(C)=O)CC5)CC4)n3)n(C)c2)n1 [Compound B-239] | 0.1 to 0.5 | 0.1 to 0.5 |  |  |
| Cn1cc(NC(=O)c2nc(NC(=O)CCNC(=O)c3cc(NC(=O)c4nccn4C)cn3C)cn2C)cc1C(=O)NCCCC(=O)Nc1cn(C)c(C(=O)NCCC(=O)Nc2cc(C(=O)Nc3cn(C)c(C(=O)NCCC(=O)N4CCNCC4)n3)n(C)c2)n1 [Compound B-49] | 0.1 to 0.5 | 0.1 to 0.5 |  |  |
| Cn1cc(NC(=O)c2nc(NC(=O)CCNC(=O)c3cc(NC(=O)c4nccn4C)cn3C)cn2C)cc1C(=O)NCCCC(=O)Nc1cn(C)c(C(=O)NCCC(=O)Nc2cc(C(=O)Nc3cn(C)c(C(=O)NCCC(=O)NCCCCC(=O)N[C@@H](CCCNC(=N)N)C(=O)N[C@@H](CCCNC(=N)N)C(=O)NCCCCN=[N+]=[N-])n3)n(C)c2)n1 [Compound B-154] | 0.1 to 0.5 | > 1 |  |  |
| CN1CC(C2CCN(C(=O)CCNC(=O)c3nc(NC(=O)c4cc(NC(=O)CCNC(=O)c5nc(NC(=O)CCCNC(=O)c6cc(NC(=O)c7nc(NC(=O)CCNC(=O)c8cc(NC(=O)c9nccn9C)cn8C)cn7C)cn6C)cn5C)cn4C)cn3C)CC2)C1 [Compound B-143] | 0.1 to 0.5 | 0.1 to 0.5 |  |  |
| COCCOCCOCCOCCN(CCOCCOCCOCCOC)C(=O)CCCCn1cc(NC(=O)c2nc(NC(=O)CCNC(=O)c3cc(NC(=O)c4nccn4C)cn3C)cn2C)cc1C(=O)NCCCC(=O)Nc1cn(C)c(C(=O)NCCC(=O)Nc2cc(C(=O)Nc3cn(C)c(C(=O)NCCC(=O)NCCOCCOCCOCCN4CCC(C#CC#CC5CCN(C(=O)OC(C)(C)C)CC5)CC4)n3)n(C)c2)n1 [Compound B-228] | 0.1 to 0.5 | 0.1 to 0.5 |  |  |
| Cn1cc(NC(=O)c2nc(NC(=O)CCNC(=O)c3cc(NC(=O)c4nccn4C)cn3C)cn2C)cc1C(=O)NCCCC(=O)Nc1cn(C)c(C(=O)NCCC(=O)Nc2cc(C(=O)Nc3cn(C)c(C(=O)NCCC(=O)N4CCN(C5CCN(C(=O)OCc6ccccc6)CC5)CC4)n3)n(C)c2)n1 [Compound B-32] | < 0.1 | < 0.1 |  |  |
| CC(=O)NCCn1cc(NC(=O)c2nc(NC(=O)CCNC(=O)c3cc(NC(=O)c4nccn4C)cn3C)cn2C)cc1C(=O)NCCCC(=O)Nc1cn(C)c(C(=O)NCCC(=O)Nc2cc(C(=O)Nc3cn(C)c(C(=O)NCCC(=O)N4CCC(C#CC#CC5CCN(C(C)=O)CC5)CC4)n3)n(C)c2)n1 [Compound B-269] | < 0.1 | 0.1 to 0.5 |  |  |
| CCCNC(=O)c1nc(NC(=O)CCNC(=O)c2cc(NC(=O)c3nc(NC(=O)CCCNC(=O)c4cc(NC(=O)c5nc(NC(=O)CCNC(=O)c6cc(NC(=O)c7nccn7C)cn6C)cn5C)cn4C)cn3C)cn2C)cn1C [Compound B-44] | > 1 | > 1 |  |  |
| Cn1cc(NC(=O)c2nc(NC(=O)CCNC(=O)c3cc(NC(=O)c4nccn4C)cn3C)cn2C)cc1C(=O)NCCCC(=O)Nc1cn(C)c(C(=O)NCCC(=O)Nc2cc(C(=O)Nc3cn(C)c(C(=O)NCCC(=O)NCCCCC#N)n3)n(C)c2)n1 [Compound B-113] | < 0.1 | < 0.1 |  |  |
| CCCNC(=O)CCNC(=O)c1nc(NC(=O)c2cc(NC(=O)CCNC(=O)c3nc(NC(=O)CCCNC(=O)c4cc(NC(=O)c5nc(NC(=O)CCNC(=O)c6cc(NC(=O)c7nccn7C)cn6C)cn5C)cn4CCCCC(=O)N(CCOCCOCCOCCOC)CCOCCOCCOCCOC)cn3C)cn2C)cn1C [Compound B-163] | 0.1 to 0.5 | 0.1 to 0.5 |  |  |
| COCCOCCOCCOCCOCCOCCC(=O)NCCCCCCn1cc(NC(=O)c2nc(NC(=O)CCNC(=O)c3cc(NC(=O)c4nccn4C)cn3C)cn2C)cc1C(=O)NCCCC(=O)Nc1cn(C)c(C(=O)NCCC(=O)Nc2cc(C(=O)Nc3cn(C)c(C(=O)NCCCN(C)CCCNC(=O)c4cccc(C(=O)O)c4)n3)n(C)c2)n1 [Compound B-237] | 0.1 to 0.5 | 0.5 to 1 |  |  |
| CCCNC(=O)CCNC(=O)c1nc(NC(=O)c2cc(NC(=O)CCNC(=O)c3nc(NC(=O)CCCNC(=O)c4cc(NC(=O)c5nc(NC(=O)CCNC(=O)c6cc(NC(=O)c7nc(NC=O)cn7C)cn6C)cn5C)cn4C)cn3C)cn2C)cn1C [Compound B-324] | < 0.1 | 0.1 to 0.5 |  |  |
| CCCNC(=O)CCNC(=O)c1nc(NC(=O)c2cc(NC(=O)CCNC(=O)c3nc(NC(=O)CCCNC(=O)c4cc(NC(=O)c5nc(NC(=O)CCNC(=O)c6cc(NC(=O)c7nc(N=C(N(C)C)N(C)C)cn7C)cn6C)cn5C)cn4C)cn3C)cn2C)cn1C [Compound B-326] | > 1 | 0.1 to 0.5 |  |  |
| CN(CCCNC(=O)c1cccc(C(=O)O)c1)CCCNC(=O)c1nc(NC(=O)c2cc(NC(=O)CCNC(=O)c3nc(NC(=O)CCCNC(=O)c4cc(NC(=O)c5nc(NC(=O)CCNC(=O)c6cc(NC(=O)c7nccn7C)cn6C)cn5C)cn4C)cn3C)cn2C)cn1C [Compound B-109] | 0.1 to 0.5 | 0.1 to 0.5 |  |  |
| CN(C)C(=O)CCNC(=O)c1nc(NC(=O)c2cc(NC(=O)CCNC(=O)c3nc(NC(=O)CCCNC(=O)c4cc(NC(=O)c5nc(NC(=O)CCNC(=O)c6cc(NC(=O)c7nccn7C)cn6C)cn5C)cn4C)cn3C)cn2C)cn1C [Compound B-313] | < 0.1 | < 0.1 |  |  |
| CCCNC(=O)c1nc(NC(=O)c2cc(NC(=O)CCNC(=O)c3nc(NC(=O)CCCNC(=O)c4cc(NC(=O)c5nc(NC(=O)CCNC(=O)c6cc(NC(=O)c7nccn7C)cn6C)cn5C)cn4CCCCCCn4cc(COCCOCCOCCOC)nn4)cn3C)cn2C)cn1C [Compound B-376] | 0.1 to 0.5 | > 1 |  |  |
| Cn1cc(NC(=O)c2nc(NC(=O)CCNC(=O)c3cc(NC(=O)c4nccn4C)cn3C)cn2C)cc1C(=O)NCCCC(=O)Nc1cn(C)c(C(=O)NCCC(=O)Nc2cc(C(=O)Nc3cn(C)c(C(=O)NCCCN4CCCCC4)n3)n(C)c2)n1 [Compound B-208] | 0.1 to 0.5 | 0.1 to 0.5 |  |  |
| CCCNC(=O)CCNC(=O)c1nc(NC(=O)c2cc(NC(=O)CCNC(=O)c3nc(NC(=O)CCCNC(=O)c4cc(NC(=O)c5nc(NC(=O)CCNC(=O)c6cc(NC(=O)c7nccn7C)cn6C)cn5C)cn4CCCN=[N+]=[N-])cn3C)cn2C)cn1C [Compound B-271] | < 0.1 | < 0.1 |  |  |
| Cn1cc(NC(=O)c2nc(NC(=O)CCNC(=O)c3cc(NC(=O)c4nccn4C)cn3C)cn2C)cc1C(=O)NCCCC(=O)Nc1cn(C)c(C(=O)NCCC(=O)Nc2cc(C(=O)Nc3cn(C)c(C(=O)NCCC(=O)N4CCOCC4)n3)n(C)c2)n1 [Compound B-48] | 0.1 to 0.5 | 0.1 to 0.5 |  |  |
| CCCCCNC(=O)c1nc(NC(=O)c2cc(NC(=O)CCNC(=O)c3nc(NC(=O)CCCNC(=O)c4cc(NC(=O)c5nc(NC(=O)CCNC(=O)c6cc(NC(=O)c7nccn7C)cn6C)cn5C)cn4CCCCCCNC(=O)CCOCCOCCOCCOCCOCCOC)cn3C)cn2C)cn1C [Compound B-236] | 0.1 to 0.5 | 0.1 to 0.5 |  |  |
